We go through one molecule from patent US9006187B2, “Thiophene derivative as SGLT2 inhibitor and pharmaceutical composition comprising same” (Green Cross Corporation, priority 2010, dated 2015).

SMILES strings stand for the structures. pIC50: −log10 of the molar value.

The experiment concerns the target Human SGLT2 (hSGLT2) (Homo sapiens (Human), UniProt P31639). The experiment in a line: Inhibitory effects on human SGLT2 activities: sodium-dependent 14C-AMG glucose transport (uptake) assay in CHO cells expressing hSGLT2. As to conditions: read-out: hSGLT2 Inhibitory Activity IC50; CHO cells stably expressing hSGLT2; 14C-AMG uptake, 37° C., 2 h; single determinations for examples; in-house assay.

Sequence of Human SGLT2 (hSGLT2) (P31639 whole entry): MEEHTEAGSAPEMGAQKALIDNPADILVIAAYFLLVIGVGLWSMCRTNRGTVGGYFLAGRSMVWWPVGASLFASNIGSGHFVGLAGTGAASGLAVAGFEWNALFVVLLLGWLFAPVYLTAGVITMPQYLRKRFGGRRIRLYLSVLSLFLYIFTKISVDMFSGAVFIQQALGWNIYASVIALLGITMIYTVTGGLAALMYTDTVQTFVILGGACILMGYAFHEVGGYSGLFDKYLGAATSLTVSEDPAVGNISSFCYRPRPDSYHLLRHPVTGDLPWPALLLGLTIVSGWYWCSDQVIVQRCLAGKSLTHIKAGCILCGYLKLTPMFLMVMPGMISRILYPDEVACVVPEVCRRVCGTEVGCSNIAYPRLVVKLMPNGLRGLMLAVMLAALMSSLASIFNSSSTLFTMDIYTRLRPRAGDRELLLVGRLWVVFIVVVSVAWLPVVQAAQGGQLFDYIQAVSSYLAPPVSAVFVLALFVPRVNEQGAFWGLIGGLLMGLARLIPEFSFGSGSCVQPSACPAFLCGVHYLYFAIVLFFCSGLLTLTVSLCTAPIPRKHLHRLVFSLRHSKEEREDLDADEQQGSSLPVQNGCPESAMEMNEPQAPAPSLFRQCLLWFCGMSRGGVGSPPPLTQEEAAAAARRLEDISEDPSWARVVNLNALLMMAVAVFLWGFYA

In the case of `CCOc1ccc(Cc2sc([C@@H]3O[C@H](CO)[C@@H](O)[C@H](O)[C@H]3O)cc2C)cc1` [Example 31, (2R,3R,4S,5S,6R)-2-(5-(4-ethoxybenzyl)-4-methylthiophen-2-yl)-6-(hydroxymethyl)tetrahydro-2H-pyran-3,4,5-triol], the pIC50 was 7.15.
